Reference: publication PMC5433425 (PeerJ, 2017)
“And” between values parts separate entries of the source, which are not always exact repeats. Equal values may be shown once. Read-outs that look alike come from different tables or passages of the source.

How the values were obtained:
[1] = system: E. coli AG100; assay: Checkerboard synergy assay (MIC of antibiotics/EtBr with efflux inhibitor); format: cell-based, Escherichia coli; conditions: for MIC: Escherichia coli
Experimental: The assays were performed in triplicate and the MIC value was given as result of at least two concordant values.

[2] = system: E. coli AG100; assay: EtBr accumulation by real-time fluorometry; conditions: EtBr 1 µg/ml + inhibitor 80 µM
[3] = system: E. coli AG100A (AcrAB pump-deficient); assay: MIC, broth microdilution; format: cell-based, Escherichia coli; conditions: Escherichia coli
[4] = system: E. coli AG100tet; assay: EtBr efflux by real-time fluorometry; conditions: 80 µM
Experimental: Control tubes with only cells and cells with and without 0.4% glucose were included. The fluorescence was measured in a Rotor-Gene 3000 and the data was acquired every 30 s for 30 min at 37 °C. The efflux activity was quantified by comparing the fluorescence data obtained under conditions that promote efflux (presence of glucose and absence of efflux inhibitor) with the data from the control in which the bacteria are under conditions of no efflux (presence of an inhibitor and no energy source).

CN(C)CCCN1c2ccccc2Sc2ccc(Cl)cc21 [CPZ, chlorpromazine]
MIC of OFX in presence of the efflux inhibitor ([1]; AG100, inhibitor 80 μM): 0.125 µg/mL | MIC of OXA in presence of the efflux inhibitor ([1]; AG100, inhibitor 80 μM): 512 µg/mL | MIC ([1]; AG100, AG100, inhibitor 160 μM, read-out: MIC of OXA in presence of the efflux inhibitor): ≤ 1 µg/mL | MIC ([1]; AG100, read-out: MIC of EtBr in presence of the efflux inhibitor): 25 µg/mL | MIC ([1]; AG100, read-out: MIC of EtBr in presence of the efflux inhibitor, AG100, inhibitor 40 μM): 100 µg/mL | MIC ([1]; AG100, read-out: MIC of EtBr in presence of the efflux inhibitor, AG100, inhibitor 160 μM): ≤ 0.39 µg/mL | MIC ([1]; AG100, read-out: MIC of OFX in presence of the efflux inhibitor): 0.125 µg/mL | MIC ([1]; AG100, read-out: MIC of OFX in presence of the efflux inhibitor, AG100, inhibitor 160 μM): 0.003 µg/mL | MIC ([1]; AG100, read-out: MIC of OXA in presence of the efflux inhibitor): 512 µg/mL | MIC ([1]; AG100, read-out: MIC of TET in presence of the efflux inhibitor, AG100, inhibitor 40 μM): 1 µg/mL | MIC ([1]; AG100, read-out: MIC of TET in presence of the efflux inhibitor, AG100, inhibitor 80 μM): 0.5 µg/mL | MIC ([1]; AG100, read-out: MIC of TET in presence of the efflux inhibitor, AG100, inhibitor 160 μM): ≤ 0.03 µg/mL | EtBr fluorescence ([2]; cycle 1): 6.13 | EtBr fluorescence ([2]; cycle 2): 8.192 | EtBr fluorescence ([2]; cycle 3): 10.0781 | EtBr fluorescence ([2]; cycle 4): 12.1665 | EtBr fluorescence ([2]; cycle 5): 14.1022 | EtBr fluorescence ([2]; cycle 6): 16.1694 | EtBr fluorescence ([2]; cycle 7): 18.3713 | EtBr fluorescence ([2]; cycle 8): 20.6676 | EtBr fluorescence ([2]; cycle 9): 22.7314 | EtBr fluorescence ([2]; cycle 10): 24.8681 | EtBr fluorescence ([2]; cycle 11): 27.4474 | EtBr fluorescence ([2]; cycle 12): 29.5933 | EtBr fluorescence ([2]; cycle 13): 31.7973 | EtBr fluorescence ([2]; cycle 14): 34.5154 | EtBr fluorescence ([2]; cycle 15): 36.8928 | EtBr fluorescence ([2]; cycle 16): 39.2786 | EtBr fluorescence ([2]; cycle 17): 41.9426 | EtBr fluorescence ([2]; cycle 18): 44.0663 | EtBr fluorescence ([2]; cycle 19): 46.4485 | EtBr fluorescence ([2]; cycle 20): 49.5818 | EtBr fluorescence ([2]; cycle 21): 51.5786 | EtBr fluorescence ([2]; cycle 22): 54.5618 | EtBr fluorescence ([2]; cycle 23): 56.7461 | EtBr fluorescence ([2]; cycle 24): 59.3586 | EtBr fluorescence ([2]; cycle 25): 62.2682 | EtBr fluorescence ([2]; cycle 26): 64.3897 | EtBr fluorescence ([2]; cycle 27): 67.0371 | EtBr fluorescence ([2]; cycle 28): 69.6952 | EtBr fluorescence ([2]; cycle 29): 72.3896 | EtBr fluorescence ([2]; cycle 30): 75.3315 | MIC [3]: 60 µg/mL and 169 µM | Fluorescence raw data, Channel Cycling A.530/585hp ([4]; cycle 1, + glucose): 6.9729 | Fluorescence raw data, Channel Cycling A.530/585hp ([4]; cycle 1, without glucose): 6.962 | Fluorescence raw data, Channel Cycling A.530/585hp ([4]; cycle 2, + glucose): 6.777 | Fluorescence raw data, Channel Cycling A.530/585hp ([4]; cycle 2, without glucose): 6.801 | Fluorescence raw data, Channel Cycling A.530/585hp ([4]; cycle 3, + glucose): 6.512 | Fluorescence raw data, Channel Cycling A.530/585hp ([4]; cycle 3, without glucose): 6.754 | Fluorescence raw data, Channel Cycling A.530/585hp ([4]; cycle 4, without glucose): 6.877 | Fluorescence raw data, Channel Cycling A.530/585hp ([4]; cycle 5, without glucose): 7.026 | Fluorescence raw data, Channel Cycling A.530/585hp ([4]; cycle 6, without glucose): 7.1507 | Fluorescence raw data, Channel Cycling A.530/585hp ([4]; cycle 7, without glucose): 7.108 | Fluorescence raw data, Channel Cycling A.530/585hp ([4]; cycle 8, without glucose): 7.075 | Fluorescence raw data, Channel Cycling A.530/585hp ([4]; cycle 9, + glucose): 6.252 | Fluorescence raw data, Channel Cycling A.530/585hp ([4]; cycle 9, without glucose): 7.246 | Fluorescence raw data, Channel Cycling A.530/585hp ([4]; cycle 10, + glucose): 6.3883 | Fluorescence raw data, Channel Cycling A.530/585hp ([4]; cycle 10, without glucose): 7.315 | Fluorescence raw data, Channel Cycling A.530/585hp ([4]; cycle 11, + glucose): 6.371 | Fluorescence raw data, Channel Cycling A.530/585hp ([4]; cycle 11, without glucose): 7.397 | Fluorescence raw data, Channel Cycling A.530/585hp ([4]; cycle 12, + glucose): 6.405 | Fluorescence raw data, Channel Cycling A.530/585hp ([4]; cycle 12, without glucose): 7.4437 | Fluorescence raw data, Channel Cycling A.530/585hp ([4]; cycle 13, + glucose): 6.558 | Fluorescence raw data, Channel Cycling A.530/585hp ([4]; cycle 13, without glucose): 7.742 | Fluorescence raw data, Channel Cycling A.530/585hp ([4]; cycle 14, + glucose): 6.536 | Fluorescence raw data, Channel Cycling A.530/585hp ([4]; cycle 14, without glucose): 7.795 | Fluorescence raw data, Channel Cycling A.530/585hp ([4]; cycle 15, + glucose): 6.4669 | Fluorescence raw data, Channel Cycling A.530/585hp ([4]; cycle 15, without glucose): 7.899 | Fluorescence raw data, Channel Cycling A.530/585hp ([4]; cycle 16, + glucose): 6.613 | Fluorescence raw data, Channel Cycling A.530/585hp ([4]; cycle 16, without glucose): 7.989 | Fluorescence raw data, Channel Cycling A.530/585hp ([4]; cycle 17, + glucose): 6.675
